Measurements taken from patent US7342027B2 (Yuhan Corporation, priority 2002, dated 2008).
Counter-ions that a name gives are not always drawn.

Legend:
Format in all cases: biochemical
[1] = biological target: T1, Cathepsin H (Calbiochem, 219388) (Homo sapiens, UniProt P09668); assay: Selectivity study: cathepsin H (L-Arg-pNA); details: 1 hour at 40° C., read-out: Cathepsins (IC50, nM) H
T1 construct: purchased Calbiochem 219388
T1 sequence (P09668 98-335): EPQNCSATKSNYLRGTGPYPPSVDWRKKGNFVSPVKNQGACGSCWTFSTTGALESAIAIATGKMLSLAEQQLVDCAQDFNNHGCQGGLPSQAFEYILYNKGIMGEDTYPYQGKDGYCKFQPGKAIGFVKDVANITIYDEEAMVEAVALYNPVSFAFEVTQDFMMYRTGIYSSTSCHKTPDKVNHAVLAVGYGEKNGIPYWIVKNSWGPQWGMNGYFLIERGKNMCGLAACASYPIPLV
Experimental: (§1) Test 2: Selectivity Study
(§2) Selectivity study for the compounds of the present invention was performed using cathepsin C (Sigma, C8511), cathepsin G (Calbiochem, 219373), cathepsin H (Calbiochem, 219388), cathepsin L (Calbiochem, 219402), and cathepsin S (Eur. J. Biochem. 236, 558 (1996) as enzyme sources.
Cathepsin H (Calbiochem, 219388) was dissolved in 20 mM NaOAc, 1 mM EDTA-2Na and 100 mM NaCl buffer (pH 4.6). All inhibitors were prepared dimethyl sulfoxide (DMSO). In vitro assays for cathepsin H were conducted with L-Arg-pNA (BACHEM, 1-1160) as a substrate. Samples were pre-incubated for 5 minutes at 40° C. Reaction was initiated by the addition of enzyme to samples, which were then incubated for 1 hour at 40° C. The absorbance of p-nitroaniline released was monitored at 405 nm using spectrophotometer.
(§3) The concentrations of the test compounds, which inhibit 50% of cathepsin s C, G, H, L and S activity, are represented as IC50 in Table 2.

[2] = biological target: T2, Cathepsin C (Sigma, C8511) (Bos taurus, UniProt Q3ZCJ8); assay: Selectivity study: cathepsin C (Gly-Phe-pNA); details: 1 hour at 37° C., read-out: Cathepsins (IC50, nM) C
T2 construct: purchased Sigma C8511
Experimental: as §1, §2
(§4) Cathepsin C (Sigma, C8511) was dissolved in D.W. buffer (pH 5.5). All inhibitors were prepared in dimethyl sulfoxide (DMSO). In vitro assays for cathepsin C were conducted with Gly-Phe-pNA (Sigma, G-0142) as a substrate. Samples were pre-incubated for 10 minutes at 37° C. Reaction was initiated by the addition of enzyme to samples, which were then incubated for 1 hour at 37° C. The absorbance of p-nitroaniline released was monitored at 405 nm using spectrophotometer.
as §3

[3] = biological target: T3, Cathepsin L (Calbiochem, 219402) (Homo sapiens, UniProt P07711); assay: Selectivity study: cathepsin L (Z-Phe-Arg-AMC); details: 1 hour at 25° C., read-out: Cathepsins (IC50, nM) L
T3 construct: purchased Calbiochem 219402
Experimental: as §1, §2
Cathepsin L (Calbiochem, 219402) was dissolved in 50 mM NaOAc buffer (pH 5.0). All inhibitors were prepared in dimethyl sulfoxide (DMSO). […] Samples were pre-incubated for 5 minutes at 25° C. Reaction was initiated by the addition of enzyme to samples, which were then incubated for 1 hour at 25° C. The fluorescence of AMC (7-amino-4-methylcoumarin) was monitored at 460 nm (excitation wavelength 360 nm), using fluorescence spectrophotometer.
as §3

[4] = biological target: Recombinant human Cathepsin S (Homo sapiens, UniProt P25774); assay: Selectivity study: cathepsin S (Z-Val-Val-AMC); details: 30 minutes at 37° C., read-out: Cathepsins (IC50, nM) S
Experimental: as §1, §2
Recombinant human Cathepsin S (Eur. J. Biochem. 236, 558 (1996) was dissolved in 0.1 M NaOAc 1 mM EDTA-4Na buffer (pH 5.5). All inhibitors were prepared in dimethyl sulfoxide (DMSO). In vitro assays for cathepsin S were conducted with Z-Val-Val-AMC (BACHEM, 1-1160) as a substrate. Samples were pre-incubated for 10 minutes at 4° C. Reaction was initiated by the addition of enzyme to samples, which were then incubated for 30 minutes at 37° C. The florescence of AMC (7-amino-4-methylcoumarin) released was monitored at 465 nm (excitation wavelength 360 nm), using fluorescence spectrophotometer.
as §3

[5] = biological target: T4, Recombinant human cathepsin K (Homo sapiens, UniProt P43235); assay: Inhibition of cathepsin K activity (Z-Phe-Arg-AMC fluorescence assay); details: 25 uM Z-Phe-Arg-AMC, pH 5.5, 1 hour at 37° C.
T4 construct: made in house
T4 sequence (P43235 115-329): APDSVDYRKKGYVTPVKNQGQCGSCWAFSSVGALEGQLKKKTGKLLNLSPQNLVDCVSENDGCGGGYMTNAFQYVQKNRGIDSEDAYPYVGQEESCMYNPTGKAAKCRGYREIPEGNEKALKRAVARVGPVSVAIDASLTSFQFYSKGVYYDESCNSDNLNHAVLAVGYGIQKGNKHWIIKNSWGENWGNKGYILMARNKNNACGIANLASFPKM
Outline: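 Z-Phe-Arg-AMC at 25 uM in 100 mM Na acetate pH 5.5 with 20 mM cysteine, 5 mM EDTA and 2% final DMSO; reaction started by adding enzyme, then 1 hour at 37° C. Fluorescence read at ex 360/em 460 nm; IC50 is the concentration giving 50% inhibition.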

[6] = biological target: T5, Cathepsin G (Calbiochem, 219373) (Homo sapiens, UniProt P08311); assay: Selectivity study: cathepsin G (Suc-Ala-Ala-Pro-Phe-pNA); details: 1 hour at 25° C., read-out: Cathepsins (IC50, nM) G
T5 construct: purchased Calbiochem 219373
T5 sequence (P08311 21-244): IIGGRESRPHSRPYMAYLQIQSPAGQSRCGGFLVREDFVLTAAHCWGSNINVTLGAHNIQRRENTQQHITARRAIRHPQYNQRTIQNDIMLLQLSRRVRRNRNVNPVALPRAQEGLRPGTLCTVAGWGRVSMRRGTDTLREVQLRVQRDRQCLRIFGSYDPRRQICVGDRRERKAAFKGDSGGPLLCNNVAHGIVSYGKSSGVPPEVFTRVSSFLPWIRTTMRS
Experimental: as §1, §2
as §4, with “Cathepsin G (Calbiochem, 219373)” for “Cathepsin C (Sigma, C8511)”, “in 50 mM NaOAc and 150 mM NaCl” for “in D.W.”, “cathepsin G” for “cathepsin C”, “with Suc-Ala-Ala-Pro-Phe-pNA (Calbiochem, 219407)” for “with Gly-Phe-pNA (Sigma, G-0142)”, “at 25°” for “at 37°”
as §3

Chain of Recombinant human Cathepsin S (P25774 115-331): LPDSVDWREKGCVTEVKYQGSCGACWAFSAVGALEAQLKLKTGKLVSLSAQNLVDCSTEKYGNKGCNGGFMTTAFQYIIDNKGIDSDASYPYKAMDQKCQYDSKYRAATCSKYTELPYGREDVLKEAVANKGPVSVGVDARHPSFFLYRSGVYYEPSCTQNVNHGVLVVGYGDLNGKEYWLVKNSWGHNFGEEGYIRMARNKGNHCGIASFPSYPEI
T2 sequence (Q3ZCJ8 25-463): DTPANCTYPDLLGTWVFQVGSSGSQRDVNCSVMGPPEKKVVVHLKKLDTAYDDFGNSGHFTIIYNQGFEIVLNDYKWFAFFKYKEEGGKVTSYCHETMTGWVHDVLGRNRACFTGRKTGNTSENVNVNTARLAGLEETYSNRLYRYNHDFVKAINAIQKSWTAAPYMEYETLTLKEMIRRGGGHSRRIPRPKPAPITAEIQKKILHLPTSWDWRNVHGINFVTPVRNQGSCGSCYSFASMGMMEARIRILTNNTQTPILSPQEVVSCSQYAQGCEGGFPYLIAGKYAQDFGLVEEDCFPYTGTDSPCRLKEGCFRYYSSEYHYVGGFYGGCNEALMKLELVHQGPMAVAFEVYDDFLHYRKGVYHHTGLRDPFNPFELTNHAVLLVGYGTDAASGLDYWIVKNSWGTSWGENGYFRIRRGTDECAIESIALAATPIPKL
T3 sequence (P07711 114-333): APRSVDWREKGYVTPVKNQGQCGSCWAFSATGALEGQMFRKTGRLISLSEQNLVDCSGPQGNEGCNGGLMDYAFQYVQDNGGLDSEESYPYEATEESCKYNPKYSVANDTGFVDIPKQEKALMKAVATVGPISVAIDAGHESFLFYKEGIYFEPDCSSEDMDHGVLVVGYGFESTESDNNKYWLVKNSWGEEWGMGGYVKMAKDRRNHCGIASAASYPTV

Row | IC50 [1] | IC50 [2] | IC50 [3] | IC50 [4] | IC50 [5] | IC50 [6] | SMILES
1 | > 2460 nM | > 2460 nM | 971 nM | 204 nM | 0.00817 µM | > 2460 nM | CS(=O)(=O)c1ccccc1N1CCC(NC(=O)C2(NC(=O)c3ccco3)CCCCC2)C(=O)C1 (centres unmarked) [Example 76, 4-[N-[1-[N-(furan-2-ylcarbonyl)amino]cyclohexanecarbonyl]amino]-1-(2-methanesulfonylphenyl)piperidin-3-one]
2 | > 1000 nM | > 1000 nM | 381 nM | 109 nM | 0.00505 µM | > 1000 nM | CC(C)S(=O)(=O)c1ccccc1N1CCC(NC(=O)C2(NC(=O)c3ccco3)CCCCC2)C(=O)C1 (centres unmarked) [Example 80, 4-[N-[1-[N-(furan-2-ylcarbonyl)amino]cyclohexanecarbonyl]amino]-1-(2-isopropylsulfonylphenyl)piperidin-3-one]
3 | > 810 nM | > 810 nM | 352 nM | 177 nM | 0.00269 µM | > 810 nM | CS(=O)(=O)c1cc(F)ccc1N1CCC(NC(=O)C2(NC(=O)c3ccco3)CCCCC2)C(=O)C1 (centres unmarked) [Example 83, 4-[N-[1-[N-(furan-2-ylcarbonyl)amino]cyclohexanecarbonyl]amino]-1-(4-fluoro-2-methylsulfonylphenyl)piperidin-3-one]
4 | > 1000 nM | > 1000 nM | 1450 nM | 197 nM |  | > 1000 nM | O=C(NC1(C(=O)NC2CCN(c3ccc(F)cc3N3CCC3=O)CC2=O)CCCCC1)c1ccco1 (centres unmarked) [Example 94, 4-[N-[1-[N-(furan-2-ylcarbonyl)amino]cyclohexanecarbonyl]amino]-1-[4-fluoro-2-(azetidin-2-one-1-yl)phenyl]piperidin-3-one]
5 |  |  |  |  | 0.00159 µM |  | CN(C)c1ccc(C(=O)NC2(C(=O)NC3CCN(c4ccc(F)cc4S(C)(=O)=O)CC3=O)CCCCC2)cc1 (centres unmarked) [Example 173, 4-[N-[1-[N-(4-(dimethylamino)benzoyl)amino]cyclohexanecarbonyl]amino]-1-(4-fluoro-2-methanesulfonylphenyl)piperidin-3-one hydrochloride]

Second part, the molecule before the results:

Row | SMILES | IC50 [1] | IC50 [2] | IC50 [3] | IC50 [4] | IC50 [5] | IC50 [6]
6 | O=C(NC1(C(=O)NC2CCN(c3ccccc3[N+](=O)[O-])CC2=O)CCCCC1)c1cc2ccccc2o1 (centres unmarked) [Example 2, 4-[N-[1-[N-(benzofuran-2-ylcarbonyl)amino]cyclohexanecarbonyl]amino]-1-(2-nitrophenyl)piperidin-3-one] | > 1000 nM | > 1000 nM | 2100 nM | 2100 nM | 0.00597 µM | > 1000 nM
7 | O=C(NC1(C(=O)NC2CCN(c3ccccc3N3CCCC3=O)CC2=O)CCCCC1)c1cc2ccccc2o1 (centres unmarked) [Example 44, 4-[N-[1-[N-(benzofuran-2-ylcarbonyl)amino]cyclohexanecarbonyl]amino]-1-[2-(pyrrolidin-2-one-1-yl)phenyl]piperidin-3-one] | > 690 nM | 394 nM | 574 nM | 460 nM | 0.00496 µM | > 690 nM
8 | O=C(NC1(C(=O)NC2CCN(c3ccccc3N3CC=CC3)CC2=O)CCCCC1)c1cc2ccccc2o1 (centres unmarked) [Example 57] | > 1000 nM | > 1000 nM | 285 nM | 731 nM |  | > 1000 nM
9 | O=C(NC1(C(=O)NC2CCN(c3ccccc3-n3cccc3)CC2=O)CCCCC1)c1cc2ccccc2o1 (centres unmarked) [Example 60, 4-[N-[1-[N-(benzofuran-2-ylcarbonyl)amino]cyclohexanecarbonyl]amino]-1-[2-(pyrrol-1-yl)phenyl]piperidin-3-one] | > 1000 nM | > 1000 nM | 103 nM | > 150 nM |  | > 1000 nM
10 | CN(C)C(=O)c1ccccc1N1CCC(NC(=O)C2(NC(=O)c3cc4ccccc4o3)CCCCC2)C(=O)C1 (centres unmarked) [Example 61, 4-[N-[1-[N-(benzofuran-2-ylcarbonyl)amino]cyclohexanecarbonyl]amino]-1-[2-(N,N-dimethylcarbamoyl)phenyl]piperidin-3-one] | > 1000 nM | > 1000 nM | > 300 nM | > 300 nM |  | > 1000 nM
11 | CNC(=O)c1ccccc1N1CCC(NC(=O)C2(NC(=O)c3cc4ccccc4o3)CCCCC2)C(=O)C1 (centres unmarked) [Example 62, 4-[N-[1-[N-(benzofuran-2-ylcarbonyl)amino]cyclohexanecarbonyl]amino]-1-[2-(N-methylcarbamoyl)phenyl]piperidin-3-one] | > 1000 nM | > 1000 nM | > 450 nM | > 450 nM |  | > 1000 nM
12 | O=C(NC1(C(=O)NC2CCN(c3ccccc3N3CCCS3(=O)=O)CC2=O)CCCCC1)c1cc2ccccc2o1 (centres unmarked) [Example 75] | > 1000 nM | > 1000 nM | 32.5 nM | > 150 nM | 0.00051 µM | > 1000 nM
13 | CN(C)c1ccc(C(=O)NC2(C(=O)NC3CCN(c4ccc(F)cc4S(C)(=O)=O)CC3=O)CCCCC2)cc1 (centres unmarked) [Example 171, 4-[N-[1-[N-(4-(dimethylamino)benzoyl)amino]cyclohexanecarbonyl]amino]-1-(4-fluoro-2-methanesulfonylphenyl)piperidin-3-one] |  |  |  |  | 0.00077 µM | 
14 | CCN(CC)c1ccc(C(=O)NC2(C(=O)NC3CCN(c4ccc(F)cc4S(C)(=O)=O)CC3=O)CCCCC2)cc1 (centres unmarked) [Example 172, 4-[N-[1-[N-(4-(diethylamino)benzoyl)amino]cyclohexanecarbonyl]amino]-1-(4-fluoro-2-methanesulfonylphenyl)piperidin-3-one] |  |  |  |  | 0.00058 µM | 
15 | CCN(CC)c1ccc(C(=O)NC2(C(=O)NC3CCN(c4ccc(F)cc4S(C)(=O)=O)CC3=O)CCCCC2)cc1 (centres unmarked) [Example 174, 4-[N-[1-[N-(4-(diethylamino)benzoyl)amino]cyclohexanecarbonyl]amino]-1-(4-fluoro-2-methanesulfonylphenyl)piperidin-3-one hydrochloride] |  |  |  |  | 0.001 µM | 
